Source: paper PMC11992225, “Antibacterial compounds against non-growing and intracellular bacteria” (npj Antimicrobials and Resistance, 2025)
pEC50: −log10 of the molar value. ≈ marks a conversion by molar mass, not a printed value.

What was measured:
[1] = system: S. flexneri 5a M90T; experiment: MIC in tryptic soy broth, S. flexneri; assay type: cell-based, Shigella flexneri; details: Shigella flexneri, 5AM90T, read-out: MIC (μM) TSB
Protocol: (§1) Minimal inhibitory concentrations (MICs) were determined using a standard microdilution assay protocol. CA-MHB medium buffered with 40 mM HEPES (pH 7.4) was used to determine the MICs for UPEC, P. aeruginosa, and S. aureus. […] MICs for UPEC were also determined in LPM buffered with 30 mM MES (pH 5.5). For S. flexneri, MICs were determined in tryptic soy broth (TSB). The assay was performed in triplicates.

[2] = system: P. aeruginosa DSM1117; experiment: MIC, standard microdilution assay, growing P. aeruginosa; assay type: cell-based, Pseudomonas aeruginosa; details: Pseudomonas aeruginosa, DSM1117; P. aeruginosa; CA-MHB pH 7.4; read-out: MIC (μM) CA-MHB
Protocol: as §1

[3] = system: TC7 cells; experiment: TC7 cell viability upon drug exposure, MTS assay; assay type: cell-based; details: at the MIC concentrations, 12 h, no bacteria
Protocol: TC7 cells were grown to confluence in transparent 96-well cell culture plates (TPP) in the same cell culture medium used for the in vitro infection assay. Just prior to the experiment, the medium was discarded, and the cells were washed twice with sterile PBS to remove any traces of medium or dead cells. […] The plate was incubated at 37 °C in a CO2 incubator for 12 h, under the same conditions as the infection assay.
The 3-(4,5-dimethylthiazol-2-yl)-5-(3-carboxymethoxyphenyl)-2-(4-sulfophenyl)-2H-tetrazolium (MTS) assay was performed using the CellTiter 96® AQueous One Solution Cell Proliferation Assay kit (Promega), according to the manufacturer’s instructions. Briefly, 20 μl of CellTiter 96 AQueous One Solution Reagent was added to each well, and the plate was incubated for 2 h at 37 °C in a CO2 incubator. The OD490 of the samples was measured using a Spark multimode plate reader (Tecan). The raw values were normalized to the control wells incubated with infection buffer only. The experiment was performed in duplicate.

[4] = system: non-growing S. aureus DSM2569; experiment: Dilution-regrowth assay (OD600, start-growth-time) on stationary-phase S. aureus; assay type: cell-based, Staphylococcus aureus; details: S. aureus
Protocol: The cultures were grown and treated for 24 h in 1:4 CA-MHB (pH 7.4).
This approach allowed us to capture the time when cultures reached a threshold optical density (start-growth-time, SGT[15]).
(§2) The cultures were incubated for 24 h in non-baffled Erlenmeyer flasks at 37 °C with shaking at 200 rpm.
For P. aeruginosa and S. aureus, dose–response analysis was conducted in 96-well plates with a 200 μl assay volume, following the procedure used for screening assay validation experiments. […] Stock solutions were prepared and stored according to the manufacturers’ instructions, then diluted in 10% DMSO before use. Cultures were incubated for 24 h in 1:4 diluted CA-MHB medium under the same conditions used for UPEC cultivation. In preliminary experiments, each compound was tested at a concentration of 20 μM in the dilution-regrowth assay with 4 technical replicates. Regrowth was monitored using a microplate reader at 37 °C with continuous shaking, and OD600 was recorded every 20 min. The time at which OD600 exceeded the threshold of 0.12 was recorded as the Start_Growth-Time.
(§3) Statistical significance of the drug effects was assessed using a one-way ANOVA followed by Dunnett’s test, comparing each treatment to the drug-free control. Statistical significance of the differences in chemical characteristics between the hit compounds and the Prestwick library was assessed using a Mann–Whitney test. Statistical significance was set at P ≤ 0.05. A five-parameter logistic equation was used for asymmetric sigmoidal curve fitting and for EC50 and IC50 determination. The Venn diagram in Fig. 1F was prepared using BioVenn web application. Characteristics of the chemical and physical properties of Prestwick library compounds were obtained from Supplementary Table S1 from reference. Characteristics of the hit compounds not included in the Prestwick library were retrieved from the PubChem database.

[5] = system: E. coli CFT073 (UPEC); experiment: MIC, standard microdilution assay, growing UPEC; assay type: cell-based, Escherichia coli; details: Escherichia coli; E. coli, pH 7.4; CA-MHB; read-out: MIC (μM) CA-MHB
Protocol: as §1

[6] = system: S. aureus DSM2569; experiment: MIC, standard microdilution assay, growing S. aureus; assay type: cell-based, Staphylococcus aureus; details: Staphylococcus aureus, DSM2569; S. aureus; CA-MHB pH 7.4; read-out: MIC (μM) CA-MHB
Protocol: as §1

[7] = system: non-growing UPEC CFT073; experiment: Dilution-regrowth assay (screen, hit validation, dose-response) on stationary-phase UPEC; assay type: cell-based, Escherichia coli
Protocol: as §2
The high-throughput screening (HTS) procedure was based on the protocol by Hazan and colleagues[15] and conducted at the Chemical Biology Consortium Sweden (CBCS) screening facility. […] Each plate included eight wells with 200 nl of 10 mM gatifloxacin, finafloxacin, and kanamycin solutions, along with 8-wells containing 200 nl of DMSO as controls. After 24 h incubation,100 μl of the culture was dispensed into each well of the 384-well plates for screening at a final concentration of 20 μM. The plates were sealed with parafilm and incubated at 37 °C for 24 h in closed humidified boxes, with wet paper towels added to prevent evaporation. […] The plates were incubated at 37 °C for 6 h in humidified boxes, then OD600 was measured using a microplate reader.
For hit validation, bacteria were cultivated, and the dilution-regrowth assay was conducted following the same protocol used in the primary screen. Hit compounds were dispensed into 384-well plates using the Echo® (Labcyte) system, with 200, 100, or 50 nl of a 10 mM solution in DMSO added per well, yielding final screening concentrations of 20, 10, and 5 μM, respectively. OD600 values of regrowing samples were normalized to the mean OD600 of the drug-free control. The testing was conducted in two replicates.
For UPEC, dose–response analysis was conducted at the CBCS screening facility. Bacteria were cultivated, and the dilution-regrowth assay was performed according to the HTS protocol. Compounds were dispensed into 384-well plates using the Echo® (Labcyte) system, and regrowth was assessed by measuring OD600 after 6 h of incubation at 37 °C in humidified boxes. Three biological replicates were performed.
as §3

[8] = system: E. coli CFT073 and BW25113; experiment: Semapimod assay: killing and regrowth of stationary-phase E. coli in two media; assay type: cell-based, Escherichia coli; details: 1% LB diluted in PBS, 20 and 50 μM, 24 h
Protocol: E. coli CFT073 and BW25113 were grown in 3 ml of LB at 37 °C, shaking at 200 rpm for 16 h. The overnight cultures were then diluted either 1:100 into 40 ml of 1:4 diluted CA-MHB (40 mM HEPES, pH 7.4) or 1:10,000 into 40 ml of 1% LB in PBS and grown in 125 mL Erlenmeyer flasks for 24 h at 37 °C, shaking at 200 rpm. Following this, 1 ml aliquots of each culture were transferred to 1.5 ml test tubes, and semapimod was added at final concentrations of 20 μM and 50 μM. DMSO was added to drug-free controls. To quantify live bacteria before treatment, a sample of each culture was serially 10-fold diluted into PBS, and 10 μL drops were spot-plated onto LB agar. The closed test tubes were incubated for 24 h at 37 °C without shaking.
After treatment, the samples were diluted 2500-fold in two steps: a 50-fold dilution into PBS, followed by a 50-fold dilution into CA-MHB in a 96-well plate with a total volume of 200 μl per well. The 96-well plate was then incubated in a BioTek Synergy H1 plate reader at 37 °C with continuous shaking at medium speed for 22 h with a lid. OD600 was recorded every 20 min. Additionally, the treated samples were diluted 1:200 into LB in another 96-well plate and incubated in a BioTek Synergy Mx plate reader at 37 °C without shaking for 22 h, with OD600 recorded every hour. […]

[H]/N=C(\N/C(=N/[H])NCCCCCCNC(=N)NC(=N)Nc1ccc(Cl)cc1)Nc1ccc(Cl)cc1 [Chlorhexidine]
MIC [1]: 1 µM (≈ 0.505 µg/mL)
MIC [2]: 8 µM (≈ 4.04 µg/mL)
toxicity to TC7 epithelial cells [3]: toxic
Regrowth, OD600 at 6h or 8h after dilution into drug-free medium (average) ([4]; drug concentration 0.1): 0.684
Regrowth, OD600 at 6h or 8h after dilution into drug-free medium (average) ([4]; drug concentration 0.5): 0.683
Regrowth, OD600 at 6h or 8h after dilution into drug-free medium (average) ([4]; drug concentration 2.5): 0.676
Regrowth, OD600 at 6h or 8h after dilution into drug-free medium (average) ([4]; drug concentration 10): 0.247
pEC50 ([4]; Staphylococcus aureus, DSM2569, regrowth delay of non-growing bacteria, 1:4 CA-MHB pH 7.4, 24 h treatment, OD600 8 h after dilution, read-out: EC50): 4.71
MIC [5]: 1 µM (≈ 0.505 µg/mL)
MIC [6]: 2 µM (≈ 1.01 µg/mL)
Regrowth, OD600 at 6h or 8h after dilution into drug-free medium (average) ([7]; E. coli in 1:4 CA-MHB (pH 7.4), drug concentration 0.25): 0.634
Regrowth, OD600 at 6h or 8h after dilution into drug-free medium (average) ([7]; E. coli in 1:4 CA-MHB (pH 7.4), drug concentration 0.5): 0.632
Regrowth, OD600 at 6h or 8h after dilution into drug-free medium (average) ([7]; E. coli in 1:4 CA-MHB (pH 7.4), drug concentration 1): 0.646
Regrowth, OD600 at 6h or 8h after dilution into drug-free medium (average) ([7]; E. coli in 1:4 CA-MHB (pH 7.4), drug concentration 2.5): 0.634
Regrowth, OD600 at 6h or 8h after dilution into drug-free medium (average) ([7]; E. coli in 1:4 CA-MHB (pH 7.4), drug concentration 5): 0.636
Regrowth, OD600 at 6h or 8h after dilution into drug-free medium (average) ([7]; E. coli in 1:4 CA-MHB (pH 7.4), drug concentration 10): 0.585
Regrowth, OD600 at 6h or 8h after dilution into drug-free medium (average) ([7]; E. coli in 1:4 CA-MHB (pH 7.4), drug concentration 30): 0.062
Regrowth, OD600 at 6h or 8h after dilution into drug-free medium (average) ([7]; E. coli in LPM (pH 5.5), drug concentration 0.25): 0.602
Regrowth, OD600 at 6h or 8h after dilution into drug-free medium (average) ([7]; E. coli in LPM (pH 5.5), drug concentration 0.5): 0.598
Regrowth, OD600 at 6h or 8h after dilution into drug-free medium (average) ([7]; E. coli in LPM (pH 5.5), drug concentration 1): 0.611
Regrowth, OD600 at 6h or 8h after dilution into drug-free medium (average) ([7]; E. coli in LPM (pH 5.5), drug concentration 2.5): 0.608
Regrowth, OD600 at 6h or 8h after dilution into drug-free medium (average) ([7]; E. coli in LPM (pH 5.5), drug concentration 5): 0.621
Regrowth, OD600 at 6h or 8h after dilution into drug-free medium (average) ([7]; E. coli in LPM (pH 5.5), drug concentration 10): 0.624
Regrowth, OD600 at 6h or 8h after dilution into drug-free medium (average) ([7]; E. coli in LPM (pH 5.5), drug concentration 30): 0.633
pEC50 ([7]; Escherichia coli, E. coli, pH 7.4, regrowth delay of non-growing bacteria, 1:4 CA-MHB, 24 h treatment, OD600 6 h after 2500-fold dilution, read-out: EC50): 4.76
activity against non-growing UPEC in LPM (pH 5.5) compared to 1:4 CA-MHB (pH 7.4) ([7]; regrowth delay and killing, Figs. 2 and 3): active at pH 7.4 and completely inactive in the acidic medium

C/C(=N\NC(=N)N)c1cc(NC(=O)CCCCCCCCC(=O)Nc2cc(/C(C)=N/NC(=N)N)cc(/C(C)=N/NC(=N)N)c2)cc(/C(C)=N/NC(=N)N)c1 [semapimod]
bactericidal activity on stationary-phase E. coli [8]: strong bactericidal activity
activity in the dilution-regrowth screen ([7]; non-growing UPEC, 20 μM): not among our hits
